From US9556130B2, “4-oxo-3,4-dihydro-1,2,3-benzotriazine modulators of GPR139” (Takeda Pharmaceutical Company Limited, priority 2014, dated 2017)

What was measured:
[1] = molecular target: T1, human GPR139 receptor (Homo sapiens (Human), UniProt Q6DWJ6); test: Activation of Calcium Signaling of GPR139 In Vitro Assay; assay type: cell-based; settings: stably transfected CHO-TRex cells, Calcium 5 dye, FLIPR Tetra;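 note: receptor expression induced with doxycycline, calcium fluorescence read continuously for one minute after compound addition, EC50 taken from a four-parameter logistic fit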
[2] = molecular target: T1, human GPR139 receptor; test: GPR139 Competition Binding; settings: stably transfected CHO-TRex membranes, 1 nM 3H radioligand; read-out: GPR139 Inhibition (Ki (nM));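 note: receptor expression induced with doxycycline before membrane preparation, bound radioactivity counted by scintillation, Ki fitted with a four-parameter logistic model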

T1 sequence (Q6DWJ6 whole entry): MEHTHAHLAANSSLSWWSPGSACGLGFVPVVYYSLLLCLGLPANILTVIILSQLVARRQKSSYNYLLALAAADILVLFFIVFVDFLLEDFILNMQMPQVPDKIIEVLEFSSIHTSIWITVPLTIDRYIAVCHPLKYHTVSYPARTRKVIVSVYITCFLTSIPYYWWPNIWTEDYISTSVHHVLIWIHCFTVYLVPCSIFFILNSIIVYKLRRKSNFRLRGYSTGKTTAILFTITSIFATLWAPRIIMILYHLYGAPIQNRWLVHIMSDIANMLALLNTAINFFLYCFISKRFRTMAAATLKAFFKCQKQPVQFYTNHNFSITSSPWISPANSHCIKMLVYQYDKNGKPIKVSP

Compound	EC50 [1] [nM]	Ki [2] [nM]
COc1cc(C)ccc1[C@H](C)NC(=O)[C@H](C)n1nnc2ccccc2c1=O [Example 50, (S)—N—((S)-1-(2-methoxy-4-methylphenyl)ethyl)-2-(4-oxobenzo[d][1,2,3]triazin-3(4H)-yl)propanamide]	52	
C[C@H](NC(=O)Cn1nnc2ccccc2c1=O)c1ccc(F)cc1Br [Example 48, (S)—N-(1-(2-bromo-4-fluorophenyl)ethyl)-2-(4-oxobenzo[d][1,2,3]triazin-3(4H)-yl)acetamide]	1510	
COc1ccc(CCN(C)C(=O)Cn2nnc3ccccc3c2=O)cc1 [Example 78, N-(4-methoxyphenethyl)-N-methyl-2-(4-oxobenzo[d][1,2,3]triazin-3(4H)-yl)acetamide]	80	
COc1cccc2c(=O)n(CC(=O)N[C@@H](C)c3ccc(C(F)(F)F)cc3)nnc12 [Example 63, (S)-2-(8-methoxy-4-oxobenzo[d][1,2,3]triazin-3 (4H)-yl)-N-(1-(4-(trifluoromethyl)phenyl)ethyl)acetamide]	50	352
COc1ccc2c(=O)n(CC(=O)N[C@@H](C)c3ccc(OC(F)(F)F)cc3)nnc2c1 [Example 56, (S)-2-(7-methoxy-4-oxobenzo[d][1,2,3]triazin-3(4H)-yl)-N-(1-(4-(trifluoromethoxy)phenyl)ethyl)acetamide]	37	218
COc1ccc([C@H](C)NC(=O)Cn2nnc3cccc(F)c3c2=O)cc1 [Example 33, (S)-2-(5-fluoro-4-oxobenzo[d][1,2,3]triazin-3(4H)-yl)-N-(1-(4-methoxyphenyl)ethyl)acetamide]	41	4850
Cc1ccc([C@H](C)NC(=O)Cn2nnc3cccc(C)c3c2=O)cc1 [Example 39, (S)-2-(5-methyl-4-oxobenzo[d][1,2,3]triazin-3 (4H)-yl)-N-(1-p-tolylethyl)acetamide]	6	92
COc1ccc2nnn(CC(=O)N[C@@H](C)c3ccc(OC(F)(F)F)cc3)c(=O)c2c1 [Example 57, (S)-2-(6-methoxy-4-oxobenzo[d][1,2,3]triazin-3(4H)-yl)-N-(1-(4-(trifluoromethoxy)phenyl)ethyl)acetamide]	43	128
COc1ccc([C@H](C)NC(=O)Cn2nnc3cc(C)ccc3c2=O)cc1 [Example 35, (S)—N-(1-(4-methoxyphenyl)ethyl)-2-(7-methyl-4-oxobenzo[d][1,2,3]triazin-3(4H)-yl)acetamide]	42	1520
C[C@H](NC(=O)Cn1nnc2ccc(F)cc2c1=O)c1ccc(OC(F)(F)F)cc1F [Example 71, (S)—N-(1-(2-fluoro-4-(trifluoromethoxy)phenyl)ethyl)-2-(6-fluoro-4-oxobenzo[d][1,2,3]triazin-3(4H)-yl)acetamide]	49	
COc1ccc([C@H](C)NC(=O)Cn2nnc3c(OC)cccc3c2=O)cc1 [Example 31, (S)-2-(8-methoxy-4-oxobenzo[d][1,2,3]triazin-3 (4H)-yl)-N-(1-(4-methoxyphenyl)ethyl)acetamide]	39	

Next, values leading:

EC50 [1] [nM]	Ki [2] [nM]	Compound
9	533	COc1ccc([C@H](C)NC(=O)Cn2nnc3cccc(C)c3c2=O)cc1 [Example 40, (S)—N-(1-(4-methoxyphenyl)ethyl)-2-(5-methyl-4-oxobenzo[d][1,2,3]triazin-3(4H)-yl)acetamide]
7	347	Cc1ccc([C@H](C)NC(=O)Cn2nnc3cc(C)ccc3c2=O)cc1 [Example 34, (S)-2-(7-methyl-4-oxobenzo[d][1,2,3]triazin-3(4H)-yl)-N-(1-p-tolylethyl)acetamide]
13	106	C[C@H](NC(=O)Cn1nnc2ccc(F)cc2c1=O)c1ccc(C(F)(F)F)cc1 [Example 64, (S)-2-(6-fluoro-4-oxobenzo[d][1,2,3]triazin-3(4H)-yl)-N-(1-(4-(trifluoromethyl)phenyl)ethyl)acetamide]
8	526	COc1ccc([C@H](C)NC(=O)Cn2nnc3c(C)cccc3c2=O)cc1 [Example 25, (S)—N-(1-(4-methoxyphenyl)ethyl)-2-(8-methyl-4-oxobenzo[d][1,2,3]triazin-3 (4H)-yl)acetamide]
24	39	Cc1ccc([C@H](C)NC(=O)Cn2nnc3ccc(F)cc3c2=O)c(C)c1 [Example 52, (S)—N-(1-(2,4-dimethylphenyl)ethyl)-2-(6-fluoro-4-oxobenzo[d][1,2,3]triazin-3(4H)-yl)acetamide]
18	115	COc1ccc2nnn(CC(=O)N[C@@H](C)c3ccc(C(F)(F)F)cc3)c(=O)c2c1 [Example 60, (S)-2-(6-methoxy-4-oxobenzo[d][1,2,3]triazin-3(4H)-yl)-N-(1-(4-(trifluoromethyl)phenyl)ethyl)acetamide]
10	282	C[C@H](NC(=O)Cn1nnc2ccc(F)cc2c1=O)c1ccc(OC(F)F)cc1 [Example 68, (S)—N-(1-(4-(difluoromethoxy)phenyl)ethyl)-2-(6-fluoro-4-oxobenzo[d][1,2,3]triazin-3(4H)-yl)acetamide]
15	26	COc1cccc2nnn(CC(=O)N[C@@H](C)c3ccc(C(F)(F)F)cc3)c(=O)c12 [Example 61, (S)-2-(5-methoxy-4-oxobenzo[d][1,2,3]triazin-3 (4H)-yl)-N-(1-(4-(trifluoromethyl)phenyl)ethyl)acetamide]
31	214	CC[C@H](NC(=O)Cn1nnc2ccccc2c1=O)c1ccc(C(F)(F)F)cc1 [Example 87, (S)-2-(4-oxobenzo[d][1,2,3]triazin-3 (4H)-yl)-N-(1-(4-(trifluoromethyl)phenyl)propyl)acetamide]
7	190	COc1ccc([C@H](C)NC(=O)Cn2nnc3c(Cl)cc(Cl)cc3c2=O)cc1 [Example 27, (S)-2-(6,8-dichloro-4-oxobenzo[d][1,2,3]triazin-3(4H)-yl)-N-(1-(4-methoxyphenyl)ethyl)acetamide]
7	10	Cc1ccc([C@H](C)NC(=O)Cn2nnc3c(C)cc(C)cc3c2=O)cc1 [Example 41, (S)-2-(6,8-dimethyl-4-oxobenzo[d][1,2,3]triazin-3(4H)-yl)-N-(1-p-tolylethyl)acetamide]
16		COc1cc(C)ccc1[C@H](C)NC(=O)[C@@H](C)n1nnc2ccccc2c1=O [Example 51, (R)—N—((S)-1-(2-methoxy-4-methylphenyl)ethyl)-2-(4-oxobenzo[d][1,2,3]triazin-3(4H)-yl)propanamide]
9	72	Cc1ccc([C@H](C)NC(=O)Cn2nnc3c(C)cccc3c2=O)cc1 [Example 24, (S)-2-(8-methyl-4-oxobenzo[d][1,2,3]triazin-3(4H)-yl)-N-(1-p-tolylethyl)acetamide]
14		C[C@H](NC(=O)Cn1nnc2ccccc2c1=O)c1ccc(F)cc1Cl [Example 47, (S)—N-(1-(2-chloro-4-fluorophenyl)ethyl)-2-(4-oxobenzo[d][1,2,3]triazin-3(4H)-yl)acetamide]
19		COc1ccc([C@H](C)NC(=O)Cn2nnc3ccc(C)cc3c2=O)cc1 [Example 29, (S)—N-(1-(4-methoxyphenyl)ethyl)-2-(6-methyl-4-oxobenzo[d][1,2,3]triazin-3(4H)-yl)acetamide]
